Like-named read-outs stand apart in the source and are kept apart here. Positions of bridges follow the written chain, without caps; N, C: chain ends. Non-standard residues stand in square brackets, D forms with d. Residues, ends and D or L forms follow the SMILES beside them. 2Nal = N[C@@H](Cc1ccc2ccccc2c1)C(=O)O; d2Nal = N[C@H](Cc1ccc2ccccc2c1)C(=O)O; Cit = NC(=O)NCCC[C@H](N)C(=O)O
Key:
CXCR4 [1] = target: T1, CXCR4 (Homo sapiens, UniProt P61073); experiment: SDF-1α-induced cell migration assay in SupT1 cells (transwell); format: cell-based; design: host or cells: SupT1 cells; conditions: 2 nM SDF-1α, 30 min pre-incubation, 3 h migration; for inhibition at 40 µM: SUP-T1, at 40 μM
T1 sequence (P61073 whole entry): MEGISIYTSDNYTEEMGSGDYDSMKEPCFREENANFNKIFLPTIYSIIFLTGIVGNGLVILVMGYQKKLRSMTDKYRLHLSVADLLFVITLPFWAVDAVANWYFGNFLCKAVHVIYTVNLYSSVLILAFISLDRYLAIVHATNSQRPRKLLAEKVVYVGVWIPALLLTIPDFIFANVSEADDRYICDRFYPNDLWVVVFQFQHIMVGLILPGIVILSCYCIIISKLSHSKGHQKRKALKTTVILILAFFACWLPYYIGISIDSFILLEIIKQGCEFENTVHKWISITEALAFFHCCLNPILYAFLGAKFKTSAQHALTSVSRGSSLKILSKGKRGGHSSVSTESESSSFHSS
Protocol: (§1) Figure 2 The inhibitory effect of the antagonists on SDF-1α-induced cell chemotaxis and calcium mobilization in SupT1 cells The antagonists and concentrations used were labeled in each lane. (A) The inhibition of cell migration by the noted antagonists. SupT1 cells pre-treated with or without CXCR4 antagonists were seeded in the upper well and cell migrated by 2 nM SDF-1α. Migrated cells without SDF-1α were used as a negative (0%) and migrated cell induced by SDF-1α as a positive control (100%). […] SupT1 cells were treated with or without CXCR4 antagonists and activated by 50 nM SDF-1α. To directly compare the inhibitory effect of the antagonists on calcium mobilization, the vehicle background and baseline were removed using GraphPad and Origin. The data were averages of at least three independent experiments.
SupT1 cells (2 × 10^6 cells per well in 75 μl) were collected and washed using assay buffer (RPMI 1640 supplemented with 0.5% BSA) and incubated with various concentrations of tested compounds for 30 min in the upper well of the transwell-96 well plates with 5.0 µm pore polycarbonate membrane insert (Corning, U.S.A.). Then, 200 μl assay buffer containing 2 nM SDF-1α was added to the lower well and cells were allowed to migrate for 3 h. Migrated cells were measured using celltiter-96 reagent.

CXCR4 [2] = target: T1, CXCR4; experiment: Competitive CXCR4 binding assay (12G5 antibody probe), wild-type CXCR4 transfected CHO cells; design: expressed in transfected cells
Protocol: The CXCR4-specific antibody, 12G5 was used as a probe for the competitive CXCR4 binding assay to evaluate the binding activity of CXCR4 antagonists.
Figure 1 Competitive CXCR4 binding curves of eleven CXCR4 antagonists The CXCR4 transfected CHO cells were incubated with different concentrations of antagonists and 250 ng/ml 12G5 antibody. The CXCR4-binding 12G5 antibody was recognized by FITC-conjugated anti-IgG second antibody. The cells treated with only second antibody were used as a negative control (0%) while cells treated with both 12G5 antibody and second antibody were used as a positive control (100%). Cells treated with CXCR4 antagonists were calculated in percentage relative to the positive and negative controls. The data were averages of at least three independent experiments and shown as mean ± standard error of the mean (S.E.M.).
(§2) The procedure for the CXCR4 competitive binding experiments was published previously. Briefly, CXCR4 antibody 12G5 (250 ng/ml) was incubated with 5 × 10^5 cells and varying concentrations of unlabeled compounds in a final volume of 100 μl of assay buffer (PBS with 0.5% BSA and 0.05% NaN3) in 96-well plates for 40 min on ice, after being washed with assay buffer once. The cells were incubated with FITC-conjugated second antibody IgG for 30 min on ice, then washed with assay buffer three times. The fluorescence intensity was measured for excitation at 485 nm and emission at 535 nm using multimode plate reader (PerkinElmer). The IC50 values were calculated using graphpad Prism 7. Experiments were performed at least three times.

CXCR4 [3] = target: T1, CXCR4; experiment: SDF-1α-induced calcium mobilization assay in SupT1 cells (Fluo-4); format: cell-based; design: host or cells: SupT1 cells; conditions: for inhibition at 10 µM: SUP-T1, at 10 μM, 50 nM SDF-1α, read-out: Inhibition of the calcium signal
Protocol: as §1
SupT1 cells were collected and washed using HHBS buffer (Hanks’ Balanced Salt solution supplemented with 20 mM HEPES) and incubated with 1 mM probenecid (Energy Chemical, China) and 4 μM Fluo-4 (AAT bioquest, U.S.A.) for 37°C for 30 min with vortex every 5 min. After being washed with HHBS, cells were suspended in PBS at 2 × 10^6/ml and seeded 200 μl cells and various concentrations of compounds per well in 96-well plate. Following 50 nM SDF-1α was added to each well, the fluorescence intensity was measured (Ex/Em = 496/516 nm) using EnSpire® multimode plate reader (PerkinElmer, U.S.A.).

CXCR4 mutants = experiment: Mutational analysis of HM70116 binding to CXCR4 mutants compared with DV3; conditions: mutants F87A, W94A, Y116A, T117A, D171A, W195A, Y255A, D262N, H281A; three independent experiments with duplicate values
Source text: Figure 10 The mutational analysis and molecular modeling of HM70116 interaction with CXCR4 (A) Mutational analysis of HM70116 interaction with CXCR4 binding pocket. The data was averaged from three independent experiments with duplicate values. The data were shown as mean ± standard error of the mean (S.E.M.). (B) MD simulation of HM70116-CXCR4 complex. (C) Binding mode of the N-terminus of vMIP-II in the CXCR4-binding pocket.
as §2

CXCR4 [4] = target: T1, CXCR4; experiment: CXCR4-mediated internalization assay, CHO cells expressing CXCR4-EGFP (confocal); format: cell-based; design: expressed in transfected cells; conditions: at 100 and 10 μM; SDF-1α-induced
Protocol: Figure 3 The inhibitory effect of the antagonists on CXCR4 internalization CHO cells expressed CXCR4-EGFP conjugates were seeded in 96-well plate with glass bottom. Untreated cells were used as a control. Cells were pre-treated with or without CXCR4 antagonists and internalized with 50 nM SDF-1α (scale bar: 5 μm). The concentrations of the antagonists used were the same as those for the calcium mobilization assay shown above. The data shown were representative of three independent experiments.
CXCR4 and EGFP were amplified using a primer shown in Supplementary Table S1. The pcDNA3 vector was digested by restriction-enzyme EcoR1 and Apa1. CXCR4 was digested by restriction-enzyme EcoR1 and Xba1. EGFP was digested by restriction-enzyme Xba1 and Apa1. CXCR4–EGFP conjugate was constructed by ligation of three DNA fragments using T4 ligase. The vector containing CXCR4 ligated EGFP at the C-terminus was transfected and expressed in CHO cells in 100 μl DMEM medium supplemented with 2% FBS at 1 × 10^5/ml which was seeded in 96-well black plate glass bottom and incubated at 37°C overnight. Following incubation with tested compounds for 10 min, 50 nM of SDF-1α was added to each well and the internalized CXCR4 was observed using a confocal microscopy (Zeiss LSM880).

CXCR4 [5] = conditions: read-out: Competitive binding IC50; cited from earlier work
Source text: (§3) To understand the receptor–ligand recognition mechanism involving CXCR4 and its antagonists, here in this study we conducted a series of comparative analyses of the biological activities and CXCR4 binding sites of eleven known CXCR4 antagonists, including the three mentioned above, using cell-based bioassays, CXCR4 site-directed mutagenesis and computer-aided molecular modeling. These antagonists studied here were chosen from different representative structural types including both D-peptides (i.e., HC4319, DV1, DV1 dimer, and DV3) and a representative counterpart L-peptide (i.e., V1) derived ...

X4-tropic HIV = conditions: read-out: IC50, block of X4-tropic HIV infection via CXCR4; cited from earlier work
Source text: as §3

[6] = CXCR4 transfected CHO cells, 250 ng/ml 12G5, 40 min on ice, FITC second antibody, mean ± S.E.M. of at least three independent experiments, SEM, read-out: IC50 (nM), inhibition of 12G5 binding to CXCR4

`N=C(N)NCCC[C@H](NC(=O)[C@@H]1CSSC[C@H](NC(=O)[C@H](Cc2ccc3ccccc3c2)NC(=O)[C@H](CCCNC(=N)N)NC(=O)[C@@H](N)CCCNC(=N)N)C(=O)N[C@@H](Cc2ccc(O)cc2)C(=O)N[C@@H](CCC(N)=O)C(=O)N[C@@H](CCCCN)C(=O)N2CCC[C@@H]2C(=O)N2CCC[C@H]2C(=O)N[C@@H](Cc2ccc(O)cc2)C(=O)N[C@@H](CCCNC(=N)N)C(=O)N[C@@H](CCCNC(N)=O)C(=O)N1)C(=O)NCC(=O)N1CCC[C@@H]1C(=O)O` [CVX15] (H-RR[2Nal]CYQK[dP]PYR[Cit]CRG[dP]-OH; disulfide 4-13) gave an inhibition at 0.02 µM (CXCR4 [1]; SUP-T1, at 20 nM) of 65% and an IC50 (CXCR4 [2]; [6]) of 7.8 ± 2.2 nM.
With `CC(C)C[C@@H](N)C(=O)NCC(=O)N[C@H](C)C(=O)N[C@H](CO)C(=O)N[C@H](Cc1c[nH]c2ccccc12)C(=O)N[C@H](Cc1c[nH]cn1)C(=O)N[C@H](CCCNC(=N)N)C(=O)N1CCC[C@@H]1C(=O)N[C@H](CC(=O)O)C(=O)N[C@H](CCCCN)C(=O)N[C@H](CS)C(=O)N[C@H](CS)C(=O)N[C@H](CC(C)C)C(=O)NCC(=O)N[C@H](Cc1ccc(O)cc1)C(=O)N[C@H](CCC(N)=O)C(=O)N[C@H](CCCCN)C(=O)N[C@H](CCCNC(=N)N)C(=O)N1CCC[C@@H]1C(=O)N[C@H](CC(C)C)C(=O)N1CCC[C@@H]1C(N)=O` [DV1] (H-[dL]G[dA][dS][dW][dH][dR][dP][dD][dK][dC][dC][dL]G[dY][dQ][dK][dR][dP][dL][dP]-NH2) the inhibition at 40 µM (CXCR4 [1]) was 78% and the inhibition at 10 µM (CXCR4 [3]) was 86%.
In the case of `CC(C)C[C@@H](N)C(=O)NCC(=O)N[C@H](C)C(=O)N[C@H](CO)C(=O)N[C@H](Cc1c[nH]c2ccccc12)C(=O)N[C@H](Cc1c[nH]cn1)C(=O)N[C@H](CCCNC(=N)N)C(=O)N1CCC[C@@H]1C(=O)N[C@H](CC(=O)O)C(=O)N[C@H](CCCCN)C(=O)O` [DV3] (H-[dL]G[dA][dS][dW][dH][dR][dP][dD][dK]-OH), the inhibition at 40 µM (CXCR4 [1]) is reported as 13% and the inhibition at 10 µM (CXCR4 [3]) is reported as about 55%.
With `CC(C)C[C@@H](N)C(=O)NCC(=O)N[C@H](C)C(=O)N[C@H](CO)C(=O)N[C@H](Cc1c[nH]c2ccccc12)C(=O)N[C@H](Cc1c[nH]cn1)C(=O)N[C@H](CCCNC(=N)N)C(=O)N1CCC[C@@H]1C(=O)N[C@H](CC(=O)O)C(=O)N[C@H](CCCCN)C(=O)N[C@H](CCCNC(=N)N)C(=O)N[C@H](CCCNC(=N)N)C(=O)O` [HM12] (H-[dL]G[dA][dS][dW][dH][dR][dP][dD][dK][dR][dR]-OH) the IC50 (CXCR4 [2]; SEM) was 544 ± 75 nM.
For `CC(C)C[C@@H](NC(=O)[C@@H](CCCNC(=N)N)NC(=O)[C@H](N)CCCCN)C(=O)NCC(=O)N[C@H](C)C(=O)N[C@H](CO)C(=O)N[C@H](Cc1c[nH]c2ccccc12)C(=O)N[C@H](Cc1c[nH]cn1)C(=O)N[C@H](CCCNC(=N)N)C(=O)N1CCC[C@@H]1C(=O)N[C@H](CC(=O)O)C(=O)N[C@H](CCCCN)C(=O)O` [HM60303] (H-[dK][dR][dL]G[dA][dS][dW][dH][dR][dP][dD][dK]-OH; N-terminus and C-terminus assumed), the IC50 (CXCR4 [2]) was over 50000 nM.
Work on `CC(C)C[C@@H](N)C(=O)NCC(=O)N[C@H](C)C(=O)N[C@H](CO)C(=O)N[C@H](Cc1c[nH]c2ccccc12)C(=O)N[C@H](Cc1c[nH]cn1)C(=O)N[C@H](CCCNC(=N)N)C(=O)N1CCC[C@@H]1C(=O)N[C@H](CC(=O)O)C(=O)N[C@H](CCCCN)C(=O)N[C@H](CCCNC(=N)N)C(=O)O` [HM60323] (H-[dL]G[dA][dS][dW][dH][dR][dP][dD][dK][dR]-OH) yielded an IC50 (CXCR4 [2]; SEM) of 707 ± 143 nM.
With `CC(C)C[C@@H](N)C(=O)NCC(=O)N[C@H](C)C(=O)N[C@H](CO)C(=O)N[C@H](Cc1c[nH]c2ccccc12)C(=O)N[C@H](Cc1c[nH]cn1)C(=O)N[C@H](CCCNC(=N)N)C(=O)N1CCC[C@@H]1C(=O)N[C@H](Cc1ccc2ccccc2c1)C(=O)N[C@H](CCCNC(=N)N)C(=O)N[C@H](CCCNC(=N)N)C(=O)O` [HM70116] (H-[dL]G[dA][dS][dW][dH][dR][dP][d2Nal][dR][dR]-OH; N-terminus and C-terminus assumed) the “Reduction in binding to CXCR4 mutants relative to DV3 (in words)” value (CXCR4 mutants) was “greater than DV3”, the “Inhibition of intracellular calcium mobilization (in words)” value (CXCR4 [3]; 1 μM pretreatment, SDF-1α-induced) was “potently inhibited” and the “Inhibition of CXCR4 internalization (in words)” value (CXCR4 [4]) was “effectively prevented CXCR4 internalization”.
In the case of `CC1(C)CN2C(CSC(=NC3CCCCC3)NC3CCCCC3)=CSC2=N1` [IT1t], the IC50 (CXCR4 [5]) is listed as […] and the IC50 (X4-tropic HIV) is listed as 7 nM.
For `CC(C)C[C@H](NC(=O)[C@H](CS)NC(=O)[C@H](CS)NC(=O)[C@H](CCCCN)NC(=O)[C@H](CC(=O)O)NC(=O)[C@@H]1CCCN1C(=O)[C@H](CCCNC(=N)N)NC(=O)[C@H](Cc1c[nH]cn1)NC(=O)[C@H](Cc1c[nH]c2ccccc12)NC(=O)[C@H](CO)NC(=O)[C@H](C)NC(=O)CNC(=O)[C@@H](N)CC(C)C)C(=O)NCC(=O)N[C@@H](Cc1ccc(O)cc1)C(=O)N[C@@H](CCC(N)=O)C(=O)N[C@@H](CCCCN)C(=O)N[C@@H](CCCNC(=N)N)C(=O)N1CCC[C@H]1C(=O)N[C@@H](CC(C)C)C(=O)N1CCC[C@H]1C(=O)O` [V1] (H-LGASWHRPDKCCLGYQKRPLP-OH), the inhibition at 40 µM (CXCR4 [1]) was 68% and the IC50 (CXCR4 [2]; [6]) was 2630 ± 891 nM.

Reference: publication PMC10987480, “Biological and mutational analyses of CXCR4–antagonist interactions and design of new antagonistic analogs” (Bioscience Reports, 2023)
